According to patent publication US20230085307A1, “PYRIDAZINONE COMPOUND AND HERBICIDE” (NISSAN CHEMICAL CORPORATION, priority 2019, published 2023):

Key:
[1] = tested on: late watergrass; experiment: Test Example 1: herbicidal activity, application before weed generation under submerged conditions (Table 16, symbol A); type: in vivo, late watergrass (Echinochloa oryzicola); details: 320 g/ha applied herbicide
Outline: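 Emulsion formulation, water-diluted to set dose, was put onto the flooded surface (4 cm depth, alluvial soil) the same day weeds were sown and 2.5-leaf rice transplanted. After 3 weeks at 25-30 °C under glass, each species was rated 0 (≤5% kill) to 5 (≥90% kill).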

[2] = tested on: Japanese bulrush; experiment: Test Example 2: herbicidal activity, application during weed generation under submerged conditions (Table 17, symbol B); type: in vivo, Japanese bulrush (Schoenoplectus juncoides); details: AAH 320 g/ha; application during weed generation, submerged conditions
Outline: (§1)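 Mixed weed seedlings in alluvial soil under a 4 cm water layer, greenhouse-grown at 25–30° C. Compound given as a diluted emulsion into the floodwater at the 1–2 leaf stage; response graded after three weeks.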

[3] = tested on: oval-leafed pondweed; experiment: Test Example 2: herbicidal activity, application during weed generation under submerged conditions (Table 17, symbol C); type: in vivo, oval-leafed pondweed (Monochoria vaginalis); details: AAH 320 g/ha; application during weed generation, submerged conditions
Outline: as §1

[4] = tested on: southern crabgrass; experiment: Test Example 4: herbicidal effect by soil treatment (Table 19, symbol F); type: in vivo, southern crabgrass (Digitaria ciliaris); details: for herbicidal effect rating, F: southern crabgrass / herbicidal effect on F: southern crabgrass: amount of applied herbicide 320 g/ha
Outline: (§2)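 Soil-surface application: an emulsion agent diluted with water to the predetermined dose is sprayed uniformly over seeds lying under roughly 1.5 cm of sterilized diluvial soil. Boxes stay in a greenhouse at 25° C. to 30° C. Three weeks later, each species is graded on previously defined criteria.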

[5] = tested on: green foxtail; experiment: Test Example 4: herbicidal effect by soil treatment (Table 19, symbol G); type: in vivo, green foxtail (Setaria viridis); details: for herbicidal effect rating, G: green foxtail / herbicidal effect on G: green foxtail: amount of applied herbicide 320 g/ha
Outline: as §2

[6] = tested on: blackgrass; experiment: Test Example 4: herbicidal effect by soil treatment (Table 19, symbol J); type: in vivo, blackgrass (Alopecurus myosuroides)
Outline: as §2

[7] = tested on: Italian ryegrass; experiment: Test Example 4: herbicidal effect by soil treatment (Table 19, symbol K); type: in vivo, Italian ryegrass (Lolium multiflorum); details: for herbicidal effect rating, K: Italian ryegrass / herbicidal effect on K: Italian ryegrass: amount of applied herbicide 320 g/ha
Outline: as §2

[8] = tested on: redroot pigweed; experiment: Test Example 4: herbicidal effect by soil treatment (Table 19, symbol N); type: in vivo, redroot pigweed (Amaranthus retroflexus); details: for herbicidal effect rating, N: redroot pigweed / herbicidal effect on N: redroot pigweed: amount of applied herbicide 320 g/ha
Outline: as §2

[9] = tested on: chickweed; experiment: Test Example 4: herbicidal effect by soil treatment (Table 19, symbol P); type: in vivo, common chickweed (Stellaria media); details: for herbicidal effect rating, P: chickweed / herbicidal effect on P: chickweed: amount of applied herbicide 320 g/ha
Outline: as §2

[10] = tested on: southern crabgrass; experiment: Test Example 5: herbicidal effect by foliage application, plastic box (Table 20, symbol F); type: in vivo, southern crabgrass (Digitaria ciliaris); details: foliage application; for herbicidal effect grade, F: southern crabgrass: three weeks after application; for F: southern crabgrass, herbicidal effect (criteria 0-5): AAH 320 g/ha, evaluated three weeks after application
Outline: (§3)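 Sow seeds spot-wise in sterilized diluvial soil; cover with ~1.5 cm soil. Grow 14 days in greenhouse, 25° C. to 30° C. Spray foliage with emulsion diluted to predetermined amount. Rate effect after 3 weeks.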

[11] = tested on: barnyard grass; experiment: Test Example 5: herbicidal effect by foliage application, plastic box (Table 20, symbol H); type: in vivo, barnyard grass (Echinochloa crus-galli); details: foliage application; for herbicidal effect grade, H: barnyard grass: three weeks after application; for H: barnyard grass, herbicidal effect (criteria 0-5): AAH 320 g/ha, evaluated three weeks after application
Outline: as §3

[12] = tested on: Italian ryegrass; experiment: Test Example 5: herbicidal effect by foliage application, plastic box (Table 20, symbol K); type: in vivo, Italian ryegrass (Lolium multiflorum); details: foliage application; for herbicidal effect grade, K: Italian ryegrass: three weeks after application; for K: Italian ryegrass, herbicidal effect (criteria 0-5): AAH 320 g/ha, evaluated three weeks after application
Outline: as §3

[13] = tested on: lambsquarters; experiment: Test Example 5: herbicidal effect by foliage application, plastic box (Table 20, symbol O); type: in vivo, lambsquarters (Chenopodium album); details: foliage application; for herbicidal effect grade, O: lambsquarters: three weeks after application; for O: lambsquarters, herbicidal effect (criteria 0-5): AAH 320 g/ha, evaluated three weeks after application
Outline: as §3

[14] = tested on: persian speedwell; experiment: Test Example 5: herbicidal effect by foliage application, plastic box (Table 20, symbol R); type: in vivo, Persian speedwell (Veronica persica); details: foliage application; for herbicidal effect grade, R: persian speedwell: three weeks after application; for R: persian speedwell, herbicidal effect (criteria 0-5): AAH 320 g/ha, evaluated three weeks after application
Outline: as §3

[15] = tested on: persian speedwell; experiment: Test Example 4: herbicidal effect by soil treatment (Table 19, symbol R); type: in vivo, Persian speedwell (Veronica persica); details: amount of applied herbicide 320 g/ha
Outline: as §2

[16] = tested on: redroot pigweed; experiment: Test Example 5: herbicidal effect by foliage application, plastic box (Table 20, symbol N); type: in vivo, redroot pigweed (Amaranthus retroflexus); details: foliage application; for herbicidal effect grade, N: redroot pigweed: 320 g/ha, three weeks after application; for N: redroot pigweed, herbicidal effect (criteria 0-5): AAH 320 g/ha, evaluated three weeks after application
Outline: as §3

[17] = 320 g/ha, 3 weeks after application
[18] = amount of applied herbicide 320 g/ha

SMILES: C=CCC(C)Oc1ccc(-c2sc3ccccc3c2-c2c(O)c(C)nn(C)c2=O)cc1 (racemic) [1-213]
- Herbicidal effect on A: late watergrass (grade 0-5) [1]: 5 (Herbicidal rate of 90% or more (almost completely withered))
- herbicidal effect rating, B: Japanese bulrush [2]: 3 (Herbicidal rate of 40% or more and less than 70%)
- herbicidal effect rating, C: oval-leafed pondweed [3]: 4 (Herbicidal rate of 70% or more and less than 90%)
- F: southern crabgrass, herbicidal effect rating ([4]; AAH 320 g/ha): 0 (Herbicidal rate of 5% or less (almost no effect))
- G: green foxtail, herbicidal effect rating ([5]; AAH 320 g/ha): 0 (Herbicidal rate of 5% or less (almost no effect))
- J: blackgrass, herbicidal effect rating ([6]; AAH 320 g/ha): 1 (Herbicidal rate of 5% or more and less than 20%)
- K: Italian ryegrass, herbicidal effect rating ([7]; AAH 320 g/ha): 3 (Herbicidal rate of 40% or more and less than 70%)
- N: redroot pigweed, herbicidal effect rating ([8]; AAH 320 g/ha): 0 (Herbicidal rate of 5% or less (almost no effect))
- P: chickweed, herbicidal effect rating ([9]; AAH 320 g/ha): 3 (Herbicidal rate of 40% or more and less than 70%)
- effect on southern crabgrass (F) [10, 17]: 5 (Herbicidal rate of 90% or more (almost completely withered))
- effect on barnyard grass (H) [11, 17]: 5 (Herbicidal rate of 90% or more (almost completely withered))
- effect on Italian ryegrass (K) [12, 17]: 4 (Herbicidal rate of 70% or more and less than 90%)
- effect on lambsquarters (O) [13, 17]: 5 (Herbicidal rate of 90% or more (almost completely withered))
- effect on persian speedwell (R) [14, 17]: 5 (Herbicidal rate of 90% or more (almost completely withered))

SMILES: CCCCCOc1ccc(-c2sc3ccccc3c2-c2c(O)c(C)nn(C)c2=O)cc1 [1-026]
- Herbicidal effect on A: late watergrass (grade 0-5) [1]: 1 (Herbicidal rate of 5% or more and less than 20%)
- herbicidal effect rating, B: Japanese bulrush [2]: 3 (Herbicidal rate of 40% or more and less than 70%)
- herbicidal effect rating, F: southern crabgrass [4]: 0 (Herbicidal rate of 5% or less (almost no effect))
- herbicidal effect rating, G: green foxtail [5]: 0 (Herbicidal rate of 5% or less (almost no effect))
- herbicidal effect rating, J: blackgrass [6, 18]: 0 (Herbicidal rate of 5% or less (almost no effect))
- herbicidal effect rating, K: Italian ryegrass [7]: 0 (Herbicidal rate of 5% or less (almost no effect))
- herbicidal effect rating, N: redroot pigweed [8]: 5 (Herbicidal rate of 90% or more (almost completely withered))
- herbicidal effect rating, P: chickweed [9]: 2 (Herbicidal rate of 20% or more and less than 40%)
- herbicidal effect rating, R: persian speedwell [15]: 3 (Herbicidal rate of 40% or more and less than 70%)
- herbicidal effect grade, F: southern crabgrass ([10]; 320 g/ha): 4 (Herbicidal rate of 70% or more and less than 90%)
- herbicidal effect grade, H: barnyard grass ([11]; 320 g/ha): 3 (Herbicidal rate of 40% or more and less than 70%)
- herbicidal effect grade, K: Italian ryegrass ([12]; 320 g/ha): 2 (Herbicidal rate of 20% or more and less than 40%)
- herbicidal effect grade, N: redroot pigweed [16]: 5 (Herbicidal rate of 90% or more (almost completely withered))
- herbicidal effect grade, O: lambsquarters ([13]; 320 g/ha): 0 (Herbicidal rate of 5% or less (almost no effect))
- herbicidal effect grade, R: persian speedwell ([14]; 320 g/ha): 5 (Herbicidal rate of 90% or more (almost completely withered))

SMILES: CC(=O)c1ccc(-c2sc3ccccc3c2-c2c(O)c(C)nn(C)c2=O)cc1 [1-041]
- Herbicidal effect on A: late watergrass (grade 0-5) [1]: 3 (Herbicidal rate of 40% or more and less than 70%)
- herbicidal effect rating, B: Japanese bulrush [2]: 3 (Herbicidal rate of 40% or more and less than 70%)
- herbicidal effect rating, C: oval-leafed pondweed [3]: 3 (Herbicidal rate of 40% or more and less than 70%)
- herbicidal effect rating, F: southern crabgrass [4]: 2 (Herbicidal rate of 20% or more and less than 40%)
- herbicidal effect rating, G: green foxtail [5]: 3 (Herbicidal rate of 40% or more and less than 70%)
- herbicidal effect rating, J: blackgrass [6, 18]: 0 (Herbicidal rate of 5% or less (almost no effect))
- herbicidal effect rating, K: Italian ryegrass [7]: 5 (Herbicidal rate of 90% or more (almost completely withered))
- herbicidal effect rating, N: redroot pigweed [8]: 4 (Herbicidal rate of 70% or more and less than 90%)
- herbicidal effect rating, P: chickweed [9]: 0 (Herbicidal rate of 5% or less (almost no effect))
- herbicidal effect grade, F: southern crabgrass ([10]; 320 g/ha): 4 (Herbicidal rate of 70% or more and less than 90%)
- herbicidal effect grade, H: barnyard grass ([11]; 320 g/ha): 0 (Herbicidal rate of 5% or less (almost no effect))
- herbicidal effect grade, K: Italian ryegrass ([12]; 320 g/ha): 5 (Herbicidal rate of 90% or more (almost completely withered))
- herbicidal effect grade, N: redroot pigweed [16]: 5 (Herbicidal rate of 90% or more (almost completely withered))
- herbicidal effect grade, O: lambsquarters ([13]; 320 g/ha): 3 (Herbicidal rate of 40% or more and less than 70%)
- herbicidal effect grade, R: persian speedwell ([14]; 320 g/ha): 5 (Herbicidal rate of 90% or more (almost completely withered))

SMILES: Cc1nn(C)c(=O)c(-c2c(-c3ccc(OC(F)F)cc3)sc3ccc(F)cc23)c1OC(=O)c1ccco1 [2-287]
- Herbicidal effect on A: late watergrass (grade 0-5) [1]: 5 (Herbicidal rate of 90% or more (almost completely withered))
- herbicidal effect rating, B: Japanese bulrush [2]: 3 (Herbicidal rate of 40% or more and less than 70%)
- herbicidal effect rating, C: oval-leafed pondweed [3]: 4 (Herbicidal rate of 70% or more and less than 90%)
- herbicidal effect on F: southern crabgrass [4]: 4 (Herbicidal rate of 70% or more and less than 90%)
- herbicidal effect on G: green foxtail [5]: 5 (Herbicidal rate of 90% or more (almost completely withered))
- herbicidal effect on K: Italian ryegrass [7]: 5 (Herbicidal rate of 90% or more (almost completely withered))
- herbicidal effect on N: redroot pigweed [8]: 5 (Herbicidal rate of 90% or more (almost completely withered))
- herbicidal effect on P: chickweed [9]: 4 (Herbicidal rate of 70% or more and less than 90%)
- herbicidal effect on R: persian speedwell [15]: 5 (Herbicidal rate of 90% or more (almost completely withered))
- F: southern crabgrass, herbicidal effect (criteria 0-5) [10]: 5 (Herbicidal rate of 90% or more (almost completely withered))
- H: barnyard grass, herbicidal effect (criteria 0-5) [11]: 5 (Herbicidal rate of 90% or more (almost completely withered))
- K: Italian ryegrass, herbicidal effect (criteria 0-5) [12]: 5 (Herbicidal rate of 90% or more (almost completely withered))
- N: redroot pigweed, herbicidal effect (criteria 0-5) [16]: 5 (Herbicidal rate of 90% or more (almost completely withered))
- O: lambsquarters, herbicidal effect (criteria 0-5) [13]: 5 (Herbicidal rate of 90% or more (almost completely withered))
- R: persian speedwell, herbicidal effect (criteria 0-5) [14]: 5 (Herbicidal rate of 90% or more (almost completely withered))

SMILES: Cc1nn(C)c(=O)c(-c2c(-c3ccc(O)cc3)sc3ccc(F)cc23)c1O [2-337]
- Herbicidal effect on A: late watergrass (grade 0-5) [1]: 4 (Herbicidal rate of 70% or more and less than 90%)
- herbicidal effect rating, B: Japanese bulrush [2]: 2 (Herbicidal rate of 20% or more and less than 40%)
- herbicidal effect rating, C: oval-leafed pondweed [3]: 0 (Herbicidal rate of 5% or less (almost no effect))
- herbicidal effect on F: southern crabgrass [4]: 0 (Herbicidal rate of 5% or less (almost no effect))
- herbicidal effect on G: green foxtail [5]: 0 (Herbicidal rate of 5% or less (almost no effect))
- herbicidal effect on J: blackgrass [6, 18]: 0 (Herbicidal rate of 5% or less (almost no effect))
- herbicidal effect on K: Italian ryegrass [7]: 0 (Herbicidal rate of 5% or less (almost no effect))
- herbicidal effect on N: redroot pigweed [8]: 0 (Herbicidal rate of 5% or less (almost no effect))
- herbicidal effect on P: chickweed [9]: 3 (Herbicidal rate of 40% or more and less than 70%)
- F: southern crabgrass, herbicidal effect (criteria 0-5) [10]: 0 (Herbicidal rate of 5% or less (almost no effect))
- H: barnyard grass, herbicidal effect (criteria 0-5) [11]: 0 (Herbicidal rate of 5% or less (almost no effect))
- K: Italian ryegrass, herbicidal effect (criteria 0-5) [12]: 0 (Herbicidal rate of 5% or less (almost no effect))
- N: redroot pigweed, herbicidal effect (criteria 0-5) [16]: 4 (Herbicidal rate of 70% or more and less than 90%)
- O: lambsquarters, herbicidal effect (criteria 0-5) [13]: 3 (Herbicidal rate of 40% or more and less than 70%)
- R: persian speedwell, herbicidal effect (criteria 0-5) [14]: 5 (Herbicidal rate of 90% or more (almost completely withered))
